Measurements as given in patent publication US10253002B2, “Compounds and methods of treating infections” (Neoculi Pty Ltd., priority 2013, dated 2019).
Converted amounts (≈) assume the structure as drawn. “And” between values parts separate entries of the source, which are not always exact repeats. Identical values can stand only once. Like-named read-outs stand apart in the source and are kept apart here.

Columns and labels:
S. pneumoniae isolates [1] = experiment: Disk diffusion susceptibility (CLSI/EUCAST), Example 5; type: cell-based, Streptococcus pneumoniae
Method in brief: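 Susceptibility to 12 antimicrobials was categorised (S/I/R) using CLSI breakpoints from zones of complete inhibition, read thrice to the nearest millimetre with the mode taken. Incubation was 16–24 h, 37 °C, 5% CO2.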

[2] = test system: Staphylococcus pseudintermedius isolates (MSSP and MRSP); experiment: Disk diffusion and Epsilometer susceptibility testing, Example 6; type: cell-based; settings: 13 MRSP isolates
[3] = test system: Staphylococcus aureus T3-129 / Staphylococcus spp. MK1; experiment: Synergy studies, checkerboard method (FIC index); type: cell-based; settings: S. aureus strain T3-29; for FICI: FIC index of antibiotic with NCL812; for Result (interaction with NCL812): antibiotic with NCL812
S. pneumoniae isolates [4] = experiment: MBC, Example 5; type: cell-based, Streptococcus pneumoniae; settings: Streptococcus pneumoniae, isolate D39; Table 28; read-out: MBC
Procedure: (§1) [Micro-broth dilutions and 96 well trays are prepared by the following method: 90 μL of 4% LHB:CAMHB is aliquotted into all wells using a multichannel pipette. 90 μL of working antimicrobial stocks were no serial diluted down the tray by a 1:2 dilution. Negative broth controls and dilution control were taken into account when planning the set up of a 96 well tray.] 10 μL of bacterial suspension was then added to the appropriate wells in the 96 well tray. Appropriate positive (no antimicrobial), negative (no antimicrobial or bacteria) and negative dilution (a serial dilution control of antimicrobial and broth) controls were included in each assay. […] The MBC was determined by a 99.95% inhibition of S. pneumoniae, taking into account the dilution factor. MICs and MBCs were determined in quadruplicate and the mode was taken as the representative value. The MIC50, MIC90 and MIC range and MBC50, MBC90 and MBC range were determined according to CLSI standards. The MIC50 and MIC90, or MBC50 and MBC90, are defined by the lowest concentrations which, when all the MICs and MBCs of the isolates are arranged from lowest to highest, inhibited the 50th and 90th percentile of the total amount of isolates, respectively.

[5] = test system: S. aureus isolates (HA-MRSA, CA-MRSA, methicillin-susceptible staphylococci); experiment: Kirby-Bauer disc diffusion resistotyping, Example 4; type: cell-based, Staphylococcus aureus; settings: for Total isolates resistant (Kirby-Bauer disc diffusion): all isolates (n = 30)
Procedure: Antibiotic-susceptibility profiling of the isolate collection was undertaken using Kirby-Bauer disc diffusion, as recommended by the Clinical and Laboratory Standards Institute (CLSI) on Mueller-Hinton agar. Isolates were grown overnight on SBA at 37° C. Colonies were suspended in physiological saline. Turbidity was adjusted to a 0.5 McFarland standard and suspensions were spread over the medium. Antibiotic discs according to Table 9 below were transferred onto the inoculated medium and analysed after 24 h incubation at 37° C.

S. pneumoniae isolates [6] = experiment: Micro-broth dilution MIC, Example 5; type: cell-based, Streptococcus pneumoniae; settings: Streptococcus pneumoniae, isolate D39; Table 28
Procedure: For all in vitro assays, fresh pneumococcal isolates were grown overnight (O/N) on horse blood agar (HBA) plates (39 g/L Columbia blood agar base [Oxoid] 5% [v/v] defribinated horse blood [Oxoid] at 37° C. with 5% supplemented CO2). Mueller-Hinton blood agar with 5% defibrinated sheep blood (MHSBA Roseworthy Media and Blood Service) was used for disk diffusion analysis as directed by Clinical Laboratory Standards Institute (CLSI) standards. Pneumococci were routinely grown in broth consisting of 4% lysed horse blood (LHB) with Cation Adjusted Mueller Hinton Broth (CAHMB, [Difco]) at 37° C. with 5% supplemented CO2. […] Isolates were stored in HSB at −80° C.
as §1

VRE = experiment: Broth microdilution MIC, Example 7 (NCL812 and analogues); type: cell-based, Enterococcus spp.; settings: for MIC: Enterococcus, VRE, 24 h
Method in brief: (§2)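 Duplicates per isolate, repeated a third time if >one two-fold dilution apart. MIC50, MIC20 and range calculated per bacterial group.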

MRSA = experiment: as above; type: cell-based, Staphylococcus aureus; settings: for MIC: Staphylococcus aureus, MRSA
Method in brief: as §2

Pseudomonas aeruginosa = experiment: as above; type: cell-based
[7] = Bioassay ranking of the analogues tested; settings: M + R (MRSA and VRE combined)
Escherichia coli = experiment: Broth microdilution MIC, Example 7 (NCL812 and analogues); type: cell-based
S. aureus ATCC29213 = experiment: Broth microdilution MIC, Example 7 (NCL analogues), Table 42; type: cell-based, Staphylococcus aureus; settings: S. aureus ATCC29213, 24 hours
E. faecalis #32 = experiment: as above; type: cell-based, Enterococcus faecalis; settings: E. faecalis #32, 24 hours

Row | Compound | disk diffusion zone diameter (S. pneumoniae isolates [1]; A66.1) [mm] | disk diffusion zone diameter (S. pneumoniae isolates [1]; D39) [mm] | disk diffusion zone diameter (S. pneumoniae isolates [1]; EF3030) [mm] | disk diffusion zone diameter (S. pneumoniae isolates [1]; L82016) [mm] | disk diffusion zone diameter (S. pneumoniae isolates [1]; P9) [mm] | disk diffusion zone diameter (S. pneumoniae isolates [1]; P21) [mm] | disk diffusion zone diameter (S. pneumoniae isolates [1]; TIGR4) [mm] | disk diffusion zone diameter (S. pneumoniae isolates [1]; WCH16) [mm] | disk diffusion zone diameter (S. pneumoniae isolates [1]; WCH43) [mm] | disk diffusion zone diameter (S. pneumoniae isolates [1]; WCH46) [mm] | disk diffusion zone diameter (S. pneumoniae isolates [1]; WCH57) [mm] | disk diffusion zone diameter (S. pneumoniae isolates [1]; WCH77) [mm] | disk diffusion zone diameter (S. pneumoniae isolates [1]; WCH86) [mm] | disk diffusion zone diameter (S. pneumoniae isolates [1]; WCH89) [mm] | disk diffusion zone diameter (S. pneumoniae isolates [1]; WCH92) [mm] | disk diffusion zone diameter (S. pneumoniae isolates [1]; WCH137) [mm] | disk diffusion zone diameter (S. pneumoniae isolates [1]; WCH158) [mm] | disk diffusion zone diameter (S. pneumoniae isolates [1]; WCH184) [mm] | disk diffusion zone diameter (S. pneumoniae isolates [1]; WCH211) [mm] | disk diffusion zone diameter (S. pneumoniae isolates [1]; WU2) [mm] | other results
1 | O=C(N[C@H](CO)[C@H](O)c1ccc([N+](=O)[O-])cc1)C(Cl)Cl [Chloramphenicol] | 34 | 31 | 29 | 26 | 31 | 35 | 32 | 11 | 26 | 28 | 40 | 36 | 34 | 32 | 32 | 31 | 34 | 29 | 32 | 30 | disk diffusion susceptibility category (S. pneumoniae isolates [1]; WCH16 (Table 18)): R; MRSP isolates susceptible [2]: 23%; FICI [3]: 0.75 and 0.562; Antibiotic MIC Alone [3]: 8 µg/mL and 4 µg/mL; Result (interaction with NCL812) [3]: NE (No effect (NE) was defined as 0.5<FICI<4)
2 | CC[C@H]1OC(=O)[C@H](C)[C@@H](O[C@H]2C[C@@](C)(OC)[C@@H](O)[C@H](C)O2)[C@H](C)[C@@H](O[C@@H]2O[C@H](C)C[C@H](N(C)C)[C@H]2O)[C@](C)(O)C[C@@H](C)C(=O)[C@H](C)[C@@H](O)[C@]1(C)O [Erythromycin] | 33 | 35 | 30 | 29 | 32 | 35 | 34 | 34 | 29 | 27 | 41 | 37 | 30 | 35 | 28 | 34 | 34 | 10 | 33 | 34 | disk diffusion susceptibility category (S. pneumoniae isolates [1]; WCH184 (Table 19)): R; Resistance status to Erythromycin (S. pneumoniae isolates [1]; isolate D39): Sensitive; FICI [3]: 0.75 and 0.562 and 0.5 and 0.531; Antibiotic MIC Alone [3]: 0.25 µg/mL; Result (interaction with NCL812) [3]: NE (No effect (NE) was defined as 0.5<FICI<4); MBC (S. pneumoniae isolates [4]): 0.00275 µg/mL (≈ 0.00375 µM); isolates resistant (Kirby-Bauer disc diffusion) ([5]; CA-MRSA (n = 10)): 100.00%; isolates resistant (Kirby-Bauer disc diffusion) ([5]; HA-MRSA (n = 10)): 80.00%; isolates resistant (Kirby-Bauer disc diffusion) ([5]; Methicillin-susceptible staphylococci (n = 10)): 40.00%; Total isolates resistant (Kirby-Bauer disc diffusion) [5]: 73.33%; Total isolates resistant (Kirby-Bauer disc diffusion) ([5]; listed as erythromycin): 73.33%; MIC (S. pneumoniae isolates [6]): 0.00275 µg/mL (≈ 0.00375 µM)
3 | Nc1nc(N/N=C/c2ccc(C(F)(F)F)cc2)cc(N/N=C/c2ccc(C(F)(F)F)cc2)n1 [NCL221] |  |  |  |  |  |  |  |  |  |  |  |  |  |  |  |  |  |  |  |  | MIC (VRE; read-out: MIC (μg/ml) at 24 hours VRE 1, VRE 1, 24 hours): 64 µg/mL (≈ 137 µM); MIC (VRE; read-out: MIC (μg/ml) at 24 hours VRE 2, VRE 2, 24 hours): 64 µg/mL (≈ 137 µM); activity against VRE among analogues (VRE; MIC testing, two VRE strains): greatest activity; activity against MRSA among analogues (MRSA; MIC testing, two MRSA strains): greatest activity; MIC (MRSA; 24 h, read-out: MIC (μg/ml) at 24 hours MRSA 1, MRSA 1, 24 hours): 4 µg/mL (≈ 8.56 µM); MIC (MRSA; 24 h, read-out: MIC (μg/ml) at 24 hours MRSA 2, MRSA 2, 24 hours): 2 µg/mL (≈ 4.28 µM); MIC (MRSA; bioassay ranking, read-out: MRSA): 3 µg/mL (≈ 6.42 µM); MIC (Pseudomonas aeruginosa; Pseudomonas aeruginosa, 24 h, read-out: MIC (μg/ml) at 24 hours P. aeruginosa, P. aeruginosa, 24 hours): > 128 µg/mL; M + R [7]: 33.5 µg/mL; MIC (Escherichia coli; Escherichia coli, read-out: MIC (μg/ml) at 24 hours E. coli, E. coli, 24 hours): > 128 µg/mL
4 | C/C(=N\Nc1cc(N/N=C(\C)c2ccc(Cl)cc2)ncn1)c1ccc(Cl)cc1 [NCL 178] |  |  |  |  |  |  |  |  |  |  |  |  |  |  |  |  |  |  |  |  | MIC (μg/ml) at 24 hours Pseudomonas #008 (Pseudomonas aeruginosa; Pseudomonas #008, 24 hours): >64 µg/mL; MIC (μg/ml) at 24 hours S. aureus ATCC29213 (S. aureus ATCC29213): >64 µg/mL; MIC (μg/ml) at 24 hours E. faecalis #32 (E. faecalis #32): >64 µg/mL; MIC (μg/ml) at 24 hours E. coli ATCC25922 (Escherichia coli; E. coli ATCC25922, 24 hours): >64 µg/mL
